In the assay the test system is Apt-WO-06 (AWO-06) (DNA, aptamer) GTGAGTTTACATGGGGTCCTATAGGCGAACAATCG
The experiment in a line: graphene oxide fluorescence recovery. The conditions noted are these: buffer composition not stated; aptamer 0.5-30 nM titrated; displaced from graphene oxide; apparent.

Turning to `CC1COc2c(N3CCN(C)CC3)c(F)cc3c(=O)c(C(=O)O)cn1c23` (stereo not shown), the Kd is listed as 28.16 nM.

These data come from article PMC10974795 (2024).
